Test system: NPC1^I1061T patient-derived fibroblast cells (GM18453)
Test: LipidTox Red lipid droplet staining
Assay type: cell-based, human
Settings: 10 μM, 48 h, vs DMSO

Compound: CC(=O)Nc1ccc(C(=O)Nc2ccccc2N)cc1 [CI-994]
- Lipid droplet formation (LipidTox Red): increases lipid droplet formation

— publication PMC8204796 (ACS Pharmacology & Translational Science, 2021)
